Molecules are shown by their SMILES.

The target in the experiment is T1, hTLR9 (Homo sapiens, UniProt Q9NR96).
T1 sequence (Q9NR96 26-1032): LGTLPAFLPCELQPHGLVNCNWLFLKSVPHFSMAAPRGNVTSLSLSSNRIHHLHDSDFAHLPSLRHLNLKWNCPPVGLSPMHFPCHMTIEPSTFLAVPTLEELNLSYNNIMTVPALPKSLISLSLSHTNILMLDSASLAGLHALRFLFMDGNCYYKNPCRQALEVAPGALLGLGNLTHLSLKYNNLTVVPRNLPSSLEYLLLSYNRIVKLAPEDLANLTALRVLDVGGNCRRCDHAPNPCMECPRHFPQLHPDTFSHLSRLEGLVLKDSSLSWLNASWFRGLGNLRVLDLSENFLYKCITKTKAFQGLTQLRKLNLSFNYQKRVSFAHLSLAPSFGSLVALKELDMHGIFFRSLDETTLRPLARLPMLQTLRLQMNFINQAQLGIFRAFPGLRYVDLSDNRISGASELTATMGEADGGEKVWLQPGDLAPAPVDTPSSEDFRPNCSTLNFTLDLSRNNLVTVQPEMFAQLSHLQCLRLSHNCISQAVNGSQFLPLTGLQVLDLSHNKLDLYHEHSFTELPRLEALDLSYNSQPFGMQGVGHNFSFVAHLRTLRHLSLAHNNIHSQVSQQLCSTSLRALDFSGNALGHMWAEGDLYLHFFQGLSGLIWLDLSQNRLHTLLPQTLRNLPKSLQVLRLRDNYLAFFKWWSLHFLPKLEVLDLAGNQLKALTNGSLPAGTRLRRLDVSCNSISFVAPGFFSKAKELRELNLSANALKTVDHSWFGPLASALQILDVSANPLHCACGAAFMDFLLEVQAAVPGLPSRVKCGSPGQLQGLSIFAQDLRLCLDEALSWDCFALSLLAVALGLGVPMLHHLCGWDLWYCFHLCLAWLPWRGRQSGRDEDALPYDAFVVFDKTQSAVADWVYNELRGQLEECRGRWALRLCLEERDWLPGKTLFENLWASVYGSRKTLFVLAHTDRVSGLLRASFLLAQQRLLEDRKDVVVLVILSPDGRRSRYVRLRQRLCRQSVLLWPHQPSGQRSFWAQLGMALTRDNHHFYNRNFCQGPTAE
Briefly: HEK293-Blue-hTLR-9 cells assay (SEAP reporter, ODN2006 stimulation). It counts as cell-based. Further details: host or cells: HEK293 (HEK-Blue hTLR9). Conditions: HEK293-Blue-hTLR9 cells, ODN2006, 20 hrs; read-out: HEK/hTLR9 IC50. The gist of the method: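 HEK293-Blue-hTLR9 cells with NF-κB/AP-1-driven SEAP reporter treated with serially diluted compound (1% DMSO final) plus ODN2006 for 20 h at 37 °C. Supernatant SEAP measured with QUANTI-Blue, 2 h at 37 °C, absorbance 620–655 nm; antagonism seen as reduced reporter signal.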
`[2H]c1ccc2c(N3C[C@H](CN4CCN(c5cccc(N6CC(C)(N)C6)n5)CC4)O[C@H](C)C3)ccc(C#N)c2n1` [Example 155, 5-[(2S,6R)-2-[[4-[6-(3-amino-3-methyl-azetidin-1-yl)-2-pyridyl]piperazin-1-yl]methyl]-6-methyl-morpholin-4-yl]-2-deuterio-quinoline-8-carbonitrile]: the IC50 came to 71 nM.

In the case of `CO[C@@H]1CN(c2nccc(N3CCN(C[C@H]4CN(c5ccc(C#N)c6nccnc56)C[C@@H](C)O4)CC3)n2)C[C@H]1N` [Example 98, 8-[(2S,6R)-2-[[4-[2-[(3R,4R)-3-amino-4-methoxy-pyrrolidin-1-yl]pyrimidin-4-yl]piperazin-1-yl]methyl]-6-methyl-morpholin-4-yl]quinoxaline-5-carbonitrile], the IC50 amounted to 49 nM.

For `Cc1ccc(N2C[C@H](CN3CCN(c4ccnc(N5C[C@H]6NCCO[C@@H]6C5)n4)CC3)O[C@H](C)C2)c2nccnc12` [Example 129, (4aR,7aR)-6-[4-[4-[[(2S,6R)-6-methyl-4-(8-methylquinoxalin-5-yl)morpholin-2-yl]methyl]piperazin-1-yl]pyrimidin-2-yl]-3,4,4a,5,7,7a-hexahydro-2H-pyrrolo[3,4-b][1,4]oxazine], the IC50 was 171 nM.

Regarding `[2H]c1ccc2c(N3C[C@H](CN4CC(c5cnc(N6C[C@@H](N)[C@H](OC)C6)cc5C)C4)O[C@H](C)C3)ccc(C#N)c2n1` [Example 146, 5-[(2S,6R)-2-[[3-[6-[(3R,4R)-3-amino-4-methoxy-pyrrolidin-1-yl]-4-methyl-3-pyridyl]azetidin-1-yl]methyl]-6-methyl-morpholin-4-yl]-2-deuterio-quinoline-8-carbonitrile], the IC50 worked out at 31 nM.

With `C[C@@H]1CN(c2ccc(C#N)c3ncccc23)C[C@H](CN2CC(c3ccc(N4CCNCC4)cc3)C2)O1` [Example 3, 5-[(2R,6S)-2-methyl-6-[[3-(4-piperazin-1-ylphenyl)azetidin-1-yl]methyl]morpholin-4-yl]quinoline-8-carbonitrile], the IC50 is 52 nM.

In the case of `[2H]c1ccc2c(N3C[C@H](CN4CCN(c5nc(C)cc(N6CC(N)C6)n5)CC4)O[C@H](C)C3)ccc(C#N)c2n1` [Example 136, 5-[(2S,6R)-2-[[4-[4-(3-aminoazetidin-1-yl)-6-methyl-pyrimidin-2-yl]piperazin-1-yl]methyl]-6-methyl-morpholin-4-yl]-2-deuterio-quinoline-8-carbonitrile], the IC50 was found to be 33 nM.

Turning to `[2H]c1ccc2c(N3C[C@H](CN4CC(O)(c5ccc(N6CC(C)(N)C6)cc5)C4)O[C@H](C)C3)ccc(C#N)c2n1` [Example 156, 5-[(2S,6R)-2-[[3-[4-(3-amino-3-methyl-azetidin-1-yl)phenyl]-3-hydroxy-azetidin-1-yl]methyl]-6-methyl-morpholin-4-yl]-2-deuterio-quinoline-8-carbonitrile], the IC50 worked out at 46 nM.

As to `C[C@@H]1CN(c2ccc(C#N)c3ncccc23)C[C@H](CN2CCN(c3ccnc(N4C[C@@H](N)[C@H](F)C4)n3)CC2)O1` [Example 96, 5-[(2S,6R)-2-[[4-[2-[(3R,4R)-3-amino-4-fluoro-pyrrolidin-1-yl]pyrimidin-4-yl]piperazin-1-yl]methyl]-6-methyl-morpholin-4-yl]quinoline-8-carbonitrile], the IC50 was 109 nM.

For the compound `C[C@@H]1CN(c2ccc(C#N)n3nccc23)C[C@H](CN2CC(c3ccc(N4CC(C)(N)C4)cc3)C2)O1` [Example 163, 4-[(2S,6R)-2-[[3-[4-(3-amino-3-methyl-azetidin-1-yl)phenyl]azetidin-1-yl]methyl]-6-methyl-morpholin-4-yl]pyrazolo[1,5-a]pyridine-7-carbonitrile], the IC50 was 101 nM.

As to `Cc1cc(N2CCN(C[C@H]3CN(c4ccc(C#N)c5nccnc45)C[C@@H](C)O3)CC2)nc(N2CC(N)C2)n1` [Example 112, 8-[(2S,6R)-2-[[4-[2-(3-aminoazetidin-1-yl)-6-methyl-pyrimidin-4-yl]piperazin-1-yl]methyl]-6-methyl-morpholin-4-yl]quinoxaline-5-carbonitrile], the IC50 turned out to be 65 nM.

Take `[2H]c1ccc2c(N3C[C@H](CN4CCN(c5ccc(N6CC7(CNCCO7)C6)nc5)CC4)O[C@H](C)C3)ccc(C#N)c2n1` [Example 152, 2-deuterio-5-[(2R,6S)-2-methyl-6-[[4-[6-(5-oxa-2,8-diazaspiro[3.5]nonan-2-yl)-3-pyridyl]piperazin-1-yl]methyl]morpholin-4-yl]quinoline-8-carbonitrile]: the IC50 was 99 nM.

For `CO[C@@H]1CN(c2nccc(N3CCN(C[C@H]4CN(c5ccc(C#N)c6ncccc56)C[C@@H](C)O4)CC3)n2)C[C@@H]1N` [Example 92, 5-[(2S,6R)-2-[[4-[2-[(3S,4R)-3-amino-4-methoxy-pyrrolidin-1-yl]pyrimidin-4-yl]piperazin-1-yl]methyl]-6-methyl-morpholin-4-yl]quinoline-8-carbonitrile], the IC50 worked out at 42 nM.

`COC1CCN(c2nccc(N3CCN(C[C@H]4CN(c5ccc(C#N)c6ncccc56)C[C@@H](C)O4)CC3)n2)CC1N` (stereo partly drawn) [Example 109, 5-[(2S,6R)-2-[[4-[2-(3-amino-4-methoxy-1-piperidyl)pyrimidin-4-yl]piperazin-1-yl]methyl]-6-methyl-morpholin-4-yl]quinoline-8-carbonitrile]: the IC50 stood at 46 nM.

For the compound `[2H]c1ccc2c(N3C[C@H](CN4CC(c5ccc(N6C[C@H](OC)[C@@H](N)C6)cc5)C4)O[C@H](C)C3)ccc(C#N)c2n1` [Example 140, 5-[(2S,6R)-2-[[3-[4-[(3S,4S)-3-amino-4-methoxy-pyrrolidin-1-yl]phenyl]azetidin-1-yl]methyl]-6-methyl-morpholin-4-yl]-2-deuterio-quinoline-8-carbonitrile], the IC50 was determined as 162 nM.

On to `Cc1cc(N2CC(C)(N)C2)cnc1N1CCN(C[C@H]2CN(c3ccc(C#N)n4ncc(F)c34)C[C@@H](C)O2)CC1` [Example 148, 4-[(2S,6R)-2-[[4-[5-(3-amino-3-methyl-azetidin-1-yl)-3-methyl-2-pyridyl]piperazin-1-yl]methyl]-6-methyl-morpholin-4-yl]-3-fluoro-pyrazolo[1,5-a]pyridine-7-carbonitrile], for which the IC50 was found to be 75 nM.

Turning to `[2H]c1ccc2c(N3C[C@H](CN4CCN(c5ncc(N6C[C@@H](N)[C@H](OC)C6)cc5C)CC4)O[C@H](C)C3)ccc(C#N)c2n1` [Example 142, 5-[(2S,6R)-2-[[4-[5-[(3R,4R)-3-amino-4-methoxy-pyrrolidin-1-yl]-3-methyl-2-pyridyl]piperazin-1-yl]methyl]-6-methyl-morpholin-4-yl]-2-deuterio-quinoline-8-carbonitrile], the IC50 turned out to be 64 nM.

In the case of `Cc1ccc(N2C[C@H](CN3CCN(c4ccnc(N5CC(N)C5)n4)CC3)O[C@H](C)C2)c2nccnc12` [Example 130, 1-[4-[4-[[(2S,6R)-6-methyl-4-(8-methylquinoxalin-5-yl)morpholin-2-yl]methyl]piperazin-1-yl]pyrimidin-2-yl]azetidin-3-amine], the IC50 came out at 155 nM.

As for `C[C@@H]1CN(c2ccc(C#N)c3ncccc23)C[C@H](CN2CCN(c3cnc(N4CCNCC4)cn3)CC2)O1` [Example 6, 5-[(2R,6S)-2-methyl-6-[[4-(5-piperazin-1-ylpyrazin-2-yl)piperazin-1-yl]methyl]morpholin-4-yl]quinoline-8-carbonitrile], the IC50 was found to be 120 nM.

Consider `[2H]c1ccc2c(N3C[C@H](CN4CC(c5ccc(N6CC(C)(N)C6)cc5)C4)O[C@H](C)C3)ccc(C#N)c2n1` [Example 141, 5-[(2S,6R)-2-[[3-[4-(3-amino-3-methyl-azetidin-1-yl)phenyl]azetidin-1-yl]methyl]-6-methyl-morpholin-4-yl]-2-deuterio-quinoline-8-carbonitrile], for which the IC50 turned out to be 44 nM.

Turning to `Cc1ccc(N2C[C@H](CN3CCN(c4nccc(N5CCNCC5)n4)CC3)O[C@H](C)C2)c2nccnc12` [Example 116, (2R,6S)-2-methyl-4-(8-methylquinoxalin-5-yl)-6-[[4-(4-piperazin-1-ylpyrimidin-2-yl)piperazin-1-yl]methyl]morpholine], the IC50 worked out at 89 nM.

For `[2H]c1ccc2c(N3C[C@H](CN4CCN(c5ccc(N6CC(C)(N)C6)c(C)n5)CC4)O[C@H](C)C3)ccc(C#N)c2n1` [Example 147, 5-[(2S,6R)-2-[[4-[5-(3-amino-3-methyl-azetidin-1-yl)-6-methyl-2-pyridyl]piperazin-1-yl]methyl]-6-methyl-morpholin-4-yl]-2-deuterio-quinoline-8-carbonitrile], the IC50 was found to be 181 nM.
